Laboratory results taken from patent US5288709A, “Erythromycin derivatives” (priority 1991, dated 1994).
Converted amounts (≈) assume the structure as drawn. “And” between values parts separate entries of the source, which are not always exact repeats. Equal entries are not always repeated. Where two headings read alike, the source gives them in different places.

Tests used:
[1] = test system: Staphylococcus aureus (NCTC 10649); assay: In-vivo acute mouse protection assay; design: species or system Staphylococcus aureus; female Swiss albino mice; conditions: dosed 1 and 5 h post-infection, observed 7 days
Procedure: (§1) An acute mouse protection test was conducted on ten mice with each of three concentrations of selected compounds of the invention. Each concentration was a four-fold dilution of the previous concentration. The initial concentration will vary with the microorganism with which the mouse is challenged.
(§2) The acute mouse protection test was conducted on female, Swiss albino mice, 18-20 grams in weight. […] To check the potency of the inoculum, a titration of the indicated test organism was carried out in control animals. The titration determines the LD50 for a particular microorganism. The treatment groups of animals were dosed orally, by gavage, or subcutaneously with the test compounds at 1 and 5 hours post-infection and observed for 7 days. The ED50 were calculated using the mortality data collected.

[2] = test system: Staphylococcus aureus A5177; assay: In-vitro antimicrobial activity primary screen (agar dilution MIC); type: cell-based; conditions: Staphylococcus aureus, A5177, 24 h, Staphylococcus aureus A5177; BHI agar, 20-24 h
Method in brief: (§3)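 MIC read after 20-24 hours at 35 37° C as the lowest compound level with no growth, only haze or sparse colonies relative to drug-free growth control. Plates were BHI agar carrying serial compound dilutions, replicator-inoculated at 1:100, or 1:10 for slow-growing strains.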

[3] = test system: Streptococcus agalactiae CMX 508; assay: as above; type: cell-based; conditions: Streptococcus agalactiae, CMX508, 24 h, BHI agar, 20-24 h
Method in brief: as §3

[4] = test system: Streptococcus pyrogenes EES61; assay: as above; type: cell-based; conditions: Streptococcus, EES61, 24 h, BHI agar, 20-24 h
Method in brief: as §3

Escherichia coli H560 = assay: as above; type: cell-based; conditions: Escherichia coli H560, BHI agar, 20-24 h
Method in brief: as §3

[5] = test system: Enterococcus faecium ATCC 8043; assay: as above; type: cell-based; conditions: Enterococcus faecium, ATCC8043, 24 h
Method in brief: as §3

[6] = test system: Staphylococcus epidermidis 3519; assay: as above; type: cell-based; conditions: BHI agar, 20-24 h
Method in brief: as §3

[7] = test system: Micrococcus luteus ATCC 4698; assay: as above; type: cell-based; conditions: BHI agar, 20-24 h
Method in brief: as §3

Escherichia coli SS = assay: as above; type: cell-based; conditions: BHI agar, 20-24 h
Method in brief: as §3

[8] = test system: Staphylococcus aureus 45 RAR2; assay: as above; type: cell-based; conditions: Staphylococcus aureus, 45RAR2, 24 h, BHI agar, 20-24 h
Method in brief: as §3

[9] = test system: Streptococcus bovis A5169; assay: as above; type: cell-based; conditions: Streptococcus equinus, BHI agar, 20-24 h
Method in brief: as §3

[10] = test system: Pseudomonas aeruginosa K799/WT; assay: as above; type: cell-based
Method in brief: as §3

Escherichia coli DC-2 = assay: as above; type: cell-based; conditions: Escherichia coli DC-2, BHI agar, 20-24 h
Method in brief: as §3

[11] = test system: Klebsiella pneumoniae ATCC 8045; assay: as above; type: cell-based
Method in brief: as §3

Staphylococcus aureus 45 = assay: as above; type: cell-based; conditions: BHI agar, 20-24 h, read-out: MIC
Method in brief: as §3

[12] = test system: Micrococcus luteus ATCC 9341; assay: as above; type: cell-based; conditions: BHI agar, 20-24 h
Method in brief: as §3

Acinetobacter SP CMX 669 = assay: as above; type: cell-based; conditions: Acinetobacter SP CMX 669, BHI agar, 20-24 h
Method in brief: as §3

[13] = test system: Pseudomonas aeruginosa A5007; assay: as above; type: cell-based
Method in brief: as §3

[14] = test system: Enterobacter aerogenes ATCC 13048; assay: as above; type: cell-based; conditions: Klebsiella aerogenes
Method in brief: as §3

Pseudomonas cepacia 2961 = assay: as above; type: cell-based; conditions: BHI agar, 20-24 h
Method in brief: as §3

[15] = test system: Providencia stuartii CMX 640; assay: as above; type: cell-based
Method in brief: as §3

[16] = test system: Pseudomonas aeruginosa BMH10; assay: as above; type: cell-based; conditions: BHI agar, 20-24 h, read-out: MIC
Method in brief: as §3

[17] = test system: Pseudomonas aeruginosa K799/61; assay: as above; type: cell-based
Method in brief: as §3

Escherichia coli JUHL = assay: as above; type: cell-based; conditions: Escherichia coli JUHL, BHI agar, 20-24 h
Method in brief: as §3

[18] = test system: Staphylococcus aureus ATCC 6538P; assay: as above; type: cell-based; conditions: BHI agar, 20-24 h
Method in brief: as §3

[19] = test system: Streptococcus pyrogenes 2548 INDUC; assay: as above; type: cell-based; conditions: BHI agar, 20-24 h
Method in brief: as §3

[20] = test system: Streptococcus pneumoniae (ATCC 6303); assay: In-vivo acute mouse protection assay; design: species or system Streptococcus pneumoniae; female Swiss albino mice; conditions: dosed 1 and 5 h post-infection, observed 7 days, read-out: ED50
Procedure: as §1, §2

[21] = test system: Haemophilus influenzae (ATCC 43095); assay: In-vivo acute mouse protection assay; design: species or system Haemophilus influenzae; female Swiss albino mice; conditions: ATCC43095, sc, 168 h, subcutaneous, dosed 1 and 5 h post-infection, observed 7 days
Procedure: as §1, §2

[22] = Micrococcus luteus, ATCC4698, 24 h
[23] = Staphylococcus aureus, ATCC6538P, 24 h

Which results are given for `CC[C@H]1OC(=O)[C@H](C)[C@@H](O[C@H]2C[C@@](C)(OC)[C@@H](O)[C@H](C)O2)[C@H](C)[C@@H](O[C@@H]2O[C@H](C)C[C@H](N(C)C)[C@H]2O)[C@](C)(O)C[C@@H](C)[C@@H]2O[C@@]1(C)C(=O)[C@H]2C` [Example 5, (9S)-9-Deoxo-11,12-dideoxy-9,12-epoxy-11-oxoerythromycin A]?
ED50 ([1]; Staphylococcus aureus, NCTC10649, 168 h, oral, read-out: ED50): 25.2 mg/kg; ED50 ([1]; Staphylococcus aureus, NCTC10649, sc, 168 h, subcutaneous, read-out: ED50): 22.6 mg/kg; MIC [2]: 3.1 µg/mL (≈ 4.33 µM); MIC [3]: 0.1 µg/mL (≈ 0.14 µM); MIC [4]: < 0.05 µg/mL; MIC (Escherichia coli H560; read-out: MIC): 100 µg/mL (≈ 140 µM); MIC [5]: 0.1 µg/mL (≈ 0.14 µM); MIC ([6]; read-out: MIC): 0.2 µg/mL (≈ 0.279 µM); MIC [7, 22]: 0.1 µg/mL (≈ 0.14 µM); MIC (Escherichia coli SS; Escherichia coli, 24 h): 0.2 µg/mL (≈ 0.279 µM); MIC [8]: 0.2 µg/mL (≈ 0.279 µM); MIC ([9]; read-out: MIC): 0.1 µg/mL (≈ 0.14 µM); MIC ([10]; Pseudomonas aeruginosa K799/WT, BHI agar, 20-24 h, read-out: MIC): 100 µg/mL (≈ 140 µM); MIC (Escherichia coli DC-2; DC2, read-out: MIC): > 100 µg/mL; MIC ([11]; ATCC8045, Klebsiella pneumoniae ATCC 8045, BHI agar, 20-24 h, read-out: MIC): > 100 µg/mL; MIC (Staphylococcus aureus 45): 0.1 µg/mL (≈ 0.14 µM); MIC ([12]; Micrococcus luteus, ATCC9341, 24 h): < 0.05 µg/mL; MIC (Acinetobacter SP CMX 669; Acinetobacter, SPCMX669, 24 h): 12.5 µg/mL (≈ 17.5 µM); MIC ([13]; Pseudomonas aeruginosa A5007, BHI agar, 20-24 h, read-out: MIC): > 100 µg/mL; MIC ([14]; ATCC13048, Enterobacter aerogenes ATCC 13048, BHI agar, 20-24 h, read-out: MIC): > 100 µg/mL; MIC (Pseudomonas cepacia 2961; Burkholderia cepacia, read-out: MIC): 100 µg/mL (≈ 140 µM); MIC ([15]; CMX640, Providencia stuartii CMX 640, BHI agar, 20-24 h, read-out: MIC): > 100 µg/mL; MIC [16]: 100 µg/mL (≈ 140 µM); MIC ([17]; Pseudomonas aeruginosa, K799/61, 24 h, Pseudomonas aeruginosa K799/61, BHI agar, 20-24 h): 1.56 µg/mL (≈ 2.18 µM); MIC (Escherichia coli JUHL; read-out: MIC): 100 µg/mL (≈ 140 µM); MIC [18, 23]: 0.39 µg/mL (≈ 0.545 µM); MIC ([19]; read-out: MIC): 1.56 µg/mL (≈ 2.18 µM); ED50 ([20]; ATCC6303, 168 h, oral): 23.7 mg/kg; ED50 ([20]; ATCC6303, sc, 168 h, subcutaneous): < 0.4 mg/kg

With `CC[C@H]1OC(=O)[C@H](C)[C@@H](O[C@H]2C[C@@](C)(OC)[C@@H](O)[C@H](C)O2)[C@H](C)[C@@H](O[C@@H]2O[C@H](C)C[C@H](N(C)C)[C@H]2O)[C@](C)(O)C[C@@H](C)C(=O)[C@H](C)[C@@H](O)[C@]1(C)O` [Std, Erythromycin A, reference compound] as the compound, how does the ED50 ([1]; Staphylococcus aureus, NCTC10649, sc, 168 h, subcutaneous) read?
The ED50 was 12.9 mg/kg.

What about the ED50 ([1]; subcutaneous, 10080 min) of the same compound?
Its ED50 is 8.3 mg/kg and 11.6 mg/kg.

And the MIC [4]?
Its MIC is 0.02 µg/mL (≈ 0.0273 µM).

What about the MIC (Escherichia coli H560; Escherichia coli, H560, 24 h) of the same compound?
The MIC was 25 µg/mL (≈ 34.1 µM).

And the MIC [5]?
Its MIC is 0.05 µg/mL (≈ 0.0681 µM).

What about the MIC [6] of the same compound?
The MIC was 0.1 microgram/mL.

And the MIC ([6]; Staphylococcus epidermidis, 3519, 24 h)?
The MIC was 0.2 µg/mL (≈ 0.273 µM).

And the MIC [7]?
Its MIC is 0.2 microgram/mL.

And the MIC [7, 22]?
The MIC was 0.1 µg/mL (≈ 0.136 µM).

And the MIC (Escherichia coli SS)?
The MIC was 0.39 microgram/mL.

What about the MIC (Escherichia coli SS; Escherichia coli, 24 h) of the same compound?
The MIC was 0.2 µg/mL (≈ 0.273 µM).

And the MIC ([9]; A5169, 24 h)?
The MIC was 0.02 µg/mL (≈ 0.0273 µM).

And the MIC ([10]; Pseudomonas aeruginosa, K799/WT, 24 h)?
Its MIC is 100 µg/mL (≈ 136 µM).

And the MIC (Escherichia coli DC-2)?
Its MIC is 25 microgram/mL.

What about the MIC ([11]; Klebsiella pneumoniae, ATCC8045, 24 h) of the same compound?
Its MIC is 100 µg/mL (≈ 136 µM).

What about the MIC [12] of the same compound?
Its MIC is 0.02 microgram/mL.

What about the MIC (Acinetobacter SP CMX 669) of the same compound?
Its MIC is 3.1 microgram/mL.

What about the MIC (Acinetobacter SP CMX 669; Acinetobacter, SPCMX669, 24 h) of the same compound?
Its MIC is 6.2 µg/mL (≈ 8.45 µM).

And the MIC ([13]; Pseudomonas aeruginosa, A5007, 24 h)?
Its MIC is > 100 µg/mL.

And the MIC ([14]; ATCC13048, 24 h)?
The MIC was 100 µg/mL (≈ 136 µM).

And the MIC (Pseudomonas cepacia 2961)?
The MIC was 100 microgram/mL.

What about the MIC (Pseudomonas cepacia 2961; Burkholderia cepacia, 2961, 24 h) of the same compound?
The MIC was > 100 µg/mL.

And the MIC ([15]; Providencia stuartii, CMX640, 24 h)?
The MIC was > 100 µg/mL.

What about the MIC ([17]; Pseudomonas aeruginosa K799/61, BHI agar, 20-24 h) of the same compound?
Its MIC is 1.56 microgram/mL.

What about the MIC ([17]; Pseudomonas aeruginosa, K799/61, 24 h) of the same compound?
Its MIC is 0.78 µg/mL (≈ 1.06 µM).

And the MIC (Escherichia coli JUHL; Escherichia coli, 24 h)?
The MIC was 25 µg/mL (≈ 34.1 µM).

And the MIC [18]?
The MIC was 0.1 microgram/mL.

What about the MIC [18, 23] of the same compound?
Its MIC is 0.2 µg/mL (≈ 0.273 µM).

And the MIC [19]?
The MIC was 1.56 microgram/mL.

What about the MIC ([19]; Streptococcus, 2548INDUC, 24 h) of the same compound?
Its MIC is 3.1 µg/mL (≈ 4.22 µM).

What about the ED50 [21] of the same compound?
Its ED50 is 29.7 mg/kg.
